Laboratory results published in article PMC10090470 (Parasitology, 2023).
Where two headings read alike, the source gives them in different places.

Key:
in vitro = format: cell-based; details: mouse
Procedure: L929 culture cells were seeded in 96-well plates with 4 × 10^3 cells per well and sustained in RPMI medium supplemented with 10% FBS. The compounds were added (0–400 μM, serially diluted 1:2) and the non-infected cultures incubated for 96 h at 37°C/5% CO2. Then, their viability was assessed by Alamar Blue reagent following the manufacturer's specifications. Controls were carried out with parasites kept under the same conditions in the absence of the compounds.

[1] = test system: intracellular forms of Trypanosoma cruzi (Tulahuen strain, DTU VI); assay: In vitro activity against intracellular forms of T. cruzi (Tulahuen strain, β-galactosidase) in L929 cells; format: cell-based; details: for Selectivity index (IC50/EC50): SI = LC50 (L929) / EC50 (intracellular forms); for EC90 / EC50: Tulahuen strain in L929 cells, 96 h, 95% confidence interval in brackets; for EC90: read-out: Activity against intracellular forms of the parasite EC90; for EC50: read-out: Activity against intracellular forms of the parasite EC50
Procedure: L929 cells were infected with trypomastigotes obtained from the supernatant of infected cultures. After 2 h of interaction (10 parasites per host cell), the parasites which were not internalized were removed by replacing the RPMI medium. After 48 h of incubation, the compounds were added to the infected cultures (0–10 μM, serially diluted 1:2) and the cultures incubated for 96 h at 37°C/5% CO2. BZ and DMSO (solvent used for the compounds) were run in parallel as positive and negative controls, respectively. After the elapsed time, 50 μL per well of chlorophenol red-β-D-galactopyranoside was added and a reading was done in a spectrophotometer at 570 nm (Romanha et al., [2010]).

[2] = test system: bloodstream trypomastigote forms of Trypanosoma cruzi (Y strain, DTU II); assay: In vitro activity against bloodstream trypomastigotes (Y strain); format: cell-based; details: 95% confidence interval in brackets
Procedure: Trypomastigote forms were incubated in 96-well microplates. Briefly, 100 μL of a BT suspension (in RPMI medium + 5% FBS) containing 10^7 parasites mL^−1 was added to the same volume of each compound diluted in RPMI + 5% FBS at twice of the desired final concentration (0–50 μM, serially diluted 1:2). After 2 and 24 h at 37°C, the number of live parasites was determined by light microscope quantification using a Neubauer chamber. Controls were carried out with parasites kept under the same conditions in the absence of the compounds. BZ was run in parallel.

L929 cells = test system: L929 cells; set-up: method as in Simões-Silva et al. (2019); details: ± S.D., ref Simões-Silva et al. (2019), read-out: Toxicity against L929 cells LC50; cited from earlier work
[3] = test system: intracellular forms of Trypanosoma cruzi (Tulahuen strain, DTU VI); details: read-out: Activity against intracellular forms of the parasite EC50, ± S.D., ref Simões-Silva et al. (2019); cited from earlier work
[4] = test system: bloodstream trypomastigote forms of Trypanosoma cruzi (Y strain, DTU II); details: ref Simões-Silva et al. (2019), cited from earlier work; for EC50: read-out: Activity against bloodstream trypomastigotes EC50; for EC50 / EC90: Y strain; for EC90: read-out: Activity against bloodstream trypomastigotes EC90
[5] = Trypanosoma cruzi, TULAHUEN, L929, 96 h

Cc1ccc(CC(=O)c2cccc(OCCCCn3ccnc3)c2)cc1Nc1nccc(-c2cccnc2)n1 [LS2/97]
CC50 at 96 h (in vitro): 19.3 µM | Selectivity index (IC50/EC50) [1]: 14.81 | EC90 [1, 5]: > 10 µM | EC50 ([1]; Trypanosoma cruzi): 1.3 µM | EC50 ([2]; Trypanosoma cruzi, 2 h): 7.84 µM | EC90 ([2]; Trypanosoma cruzi, 2 h): 11.4 µM | EC50 ([2]; Trypanosoma cruzi, 24 h): 4.72 µM | EC90 ([2]; Trypanosoma cruzi, 24 h): 8.52 µM

Cc1ccc(CC(=O)c2ccc([N+](=O)[O-])c(OCCCCn3ccnc3)c2)cc1Nc1nccc(-c2cccnc2)n1 [LS2/130]
Selectivity index (IC50/EC50) [1]: 4.84 | EC90 [1, 5]: 9.44 µM | EC50 ([1]; Trypanosoma cruzi): 1.05 µM | EC50 ([2]; Trypanosoma cruzi, 2 h): 5.69 µM | EC90 ([2]; Trypanosoma cruzi, 2 h): 7.31 µM | EC50 ([2]; Trypanosoma cruzi, 24 h): 3.4 µM | EC90 ([2]; Trypanosoma cruzi, 24 h): 4.8 µM

COc1ccc(C(=O)Cc2ccc(C)c(Nc3nccc(-c4cccnc4)n3)c2)cc1OCCCCn1ccnc1 [LS2/116]
CC50 at 96 h (in vitro): 5.13 µM | Selectivity index (IC50/EC50) [1]: 3.49 | EC90 [1, 5]: > 10 µM | EC50 ([1]; Trypanosoma cruzi): 1.47 µM | EC50 ([2]; Trypanosoma cruzi, 2 h): 12 µM | EC90 ([2]; Trypanosoma cruzi, 2 h): 28.1 µM | EC50 ([2]; Trypanosoma cruzi, 24 h): 3.89 µM | EC90 ([2]; Trypanosoma cruzi, 24 h): 7.09 µM

Cc1ccc(CC(=O)c2ccc(OCCCCn3ccnc3)c(Br)c2)cc1Nc1nccc(-c2cccnc2)n1 [LS2/89]
CC50 at 96 h (in vitro): 12.3 µM | Selectivity index (IC50/EC50) [1]: 64.74 | EC90 [1, 5]: 1.6 µM | EC50 ([1]; Trypanosoma cruzi): 0.19 µM | EC90 [1]: 1.68 µM | EC90 ([2]; 24 h): 4.93 µM | EC50 ([2]; Trypanosoma cruzi, 2 h): 4.83 µM | EC90 ([2]; Trypanosoma cruzi, 2 h): 8.12 µM | EC50 ([2]; Trypanosoma cruzi, 24 h): 2.67 µM | EC90 ([2]; Trypanosoma cruzi, 24 h): 4.9 µM

Cc1ccc(CC(=O)c2ccc(Br)cc2OCCCCn2ccnc2)cc1Nc1nccc(-c2cccnc2)n1 [LS2/128]
CC50 at 96 h (in vitro): 17.9 µM | Selectivity index (IC50/EC50) [1]: 4.22 | EC90 [1, 5]: > 10 µM | EC50 ([1]; Trypanosoma cruzi): 4.25 µM | EC50 ([2]; Trypanosoma cruzi, 2 h): 5.93 µM | EC90 ([2]; Trypanosoma cruzi, 2 h): 8.93 µM | EC50 ([2]; Trypanosoma cruzi, 24 h): 4.12 µM | EC90 ([2]; Trypanosoma cruzi, 24 h): 5.69 µM

COc1cc(C(=O)Cc2ccc(C)c(Nc3nccc(-c4cccnc4)n3)c2)ccc1OCCCCn1ccnc1 [LS2/122]
CC50 at 96 h (in vitro): 5.44 µM | Selectivity index (IC50/EC50) [1]: 1.22 | EC90 [1, 5]: > 10 µM | EC50 ([1]; Trypanosoma cruzi): 4.47 µM | EC50 ([2]; Trypanosoma cruzi, 2 h): 11.1 µM | EC90 ([2]; Trypanosoma cruzi, 2 h): 22.1 µM | EC50 ([2]; Trypanosoma cruzi, 24 h): 3.27 µM | EC90 ([2]; Trypanosoma cruzi, 24 h): 5.34 µM

O=C(Cn1ccnc1[N+](=O)[O-])NCc1ccccc1 [BZ, benznidazole]
CC50 (L929 cells): > 400 µM | EC50 [3]: 4.1 ± 1.3 µM | activity against bloodstream trypomastigotes in words ([4]; after 2 h of drug exposure): completely inactive | EC50 ([4]; 2 h): > 50 µM | EC50 ([4]; 24 h, ± S.D.): 14.4 ± 3.4 µM | EC90 ([4]; 2 h): > 50 µM | EC90 ([4]; 24 h, ± S.D.): 22.8 ± 7.8 µM

Cc1ccc(CC(=O)c2ccccc2OCCCCn2ccnc2)cc1Nc1nccc(-c2cccnc2)n1 [LS2/98]
CC50 at 96 h (in vitro): 12.2 µM | Selectivity index (IC50/EC50) [1]: 3.93 | EC90 [1, 5]: > 10 µM | EC50 ([1]; Trypanosoma cruzi): 3.31 µM | EC50 ([2]; Trypanosoma cruzi, 2 h): > 50 µM | EC90 ([2]; Trypanosoma cruzi, 2 h): > 50 µM | EC50 ([2]; Trypanosoma cruzi, 24 h): 9.59 µM | EC90 ([2]; Trypanosoma cruzi, 24 h): 22 µM
